We go through two compounds from US10899786B2, “Nucleoside phosphate compound and preparation method and use thereof” (SICHUAN KELUN-BIOTECH BIOPHARMACEUTICAL CO., LTD., priority 2016, dated 2021).

Series [1] has as its system hepatitis B virus (HBV). Briefly: In vitro pharmacological test: HBV DNA replication in HepG2.2.15 cells. Format: cell-based. The procedure:
The inhibitory effect of the compounds of the invention on hepatitis B virus (HBV) was tested. The cytotoxicity of the compounds of the invention and the effect thereof on viral (HBV) nucleic acid (DNA) replication levels were tested at cellular level.
HepG2.2.15 cells in logarithmic growth phase were seeded in a 96-well plate at a cell concentration of 40 cells/μL, and were incubate for 3 days at 37° C. in a 5% CO2 incubator. The medium was replaced with new medium (200 μL/well) before adding the compound. The concentration of each compound of the examples in the stock solutions was 200 μM. The highest concentration was 200 μM, and dilution with DMSO lead to a number of different concentrations. 1 μL of the test compound was placed in the corresponding medium well, and the final test concentrations of the compounds were 0.06, 0.24, 0.98, 3.9, 15.6, 62.5, 250, 1000 nM (for calculating the medium effective concentration (EC50)).

Series [2] concerns the target T1, CYP2C19 (Homo sapiens, UniProt P33261).
T1 construct: The protein concentration of liver microsomes in the reaction system was 0.2 mg/mL; from tissue; host or cells: liver microsomes
Briefly: CYP inhibition test, liver microsome incubation. Format: in vitro ADME. The note with it: liver microsomes, probe methoin. The protocol:
(§1) The compound was dissolved in DMSO to prepare a 10 mM stock solution. The stock solution was further diluted into a series of working solutions of 5, 1.5, 0.5, 0.15, 0.05, 0.015 and 0.005 mM with a mixed solvent of DMSO:methanol=1:1.
(§2) The substrates were each dissolved in DMSO to prepare stock solutions of the corresponding concentrations.
(§3) The positive controls were each dissolved in DMSO to prepare stock solutions of the corresponding concentrations. They were then diluted with methanol to the corresponding concentrations of working solutions.
(§4) The protein concentration of liver microsomes in the reaction system was 0.2 mg/mL, and the coenzyme NADPH was 1.0 mM. The incubation was carried out in a water bath at 37° C. The reaction was quenched and subjected to conventional procedures for LC-MS/MS analysis.
(In general: Microsomes from liver hold many membrane-bound enzymes, among them those of drug oxidation.)

Series [3] deals with T2, CYP1A2 (Homo sapiens, UniProt P05177).
T2 construct: from tissue; host or cells: liver microsomes
T2 sequence (P05177 1-516): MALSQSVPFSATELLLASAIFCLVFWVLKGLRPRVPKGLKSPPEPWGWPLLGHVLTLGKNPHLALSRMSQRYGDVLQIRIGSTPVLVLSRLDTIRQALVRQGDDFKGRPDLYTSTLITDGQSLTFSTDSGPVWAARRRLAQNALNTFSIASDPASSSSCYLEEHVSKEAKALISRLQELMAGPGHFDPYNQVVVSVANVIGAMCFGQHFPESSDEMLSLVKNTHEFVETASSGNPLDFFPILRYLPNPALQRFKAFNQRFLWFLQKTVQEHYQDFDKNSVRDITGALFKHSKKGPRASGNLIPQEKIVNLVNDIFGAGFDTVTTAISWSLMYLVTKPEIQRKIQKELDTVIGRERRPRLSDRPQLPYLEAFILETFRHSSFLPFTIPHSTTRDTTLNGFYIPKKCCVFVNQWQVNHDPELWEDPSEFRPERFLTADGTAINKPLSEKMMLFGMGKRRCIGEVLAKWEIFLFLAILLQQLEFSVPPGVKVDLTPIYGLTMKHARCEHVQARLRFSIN
Briefly: CYP inhibition test, liver microsome incubation. To be noted: liver microsomes, probe phenacetin. Format: in vitro ADME. The procedure:
as §1, §2, §3, §4

For series [4], the target named is T3, CYP2B6 (Homo sapiens, UniProt P20813).
T3 construct: The protein concentration of liver microsomes in the reaction system was 0.2 mg/mL; from tissue; host or cells: liver microsomes
T3 sequence (P20813 1-491): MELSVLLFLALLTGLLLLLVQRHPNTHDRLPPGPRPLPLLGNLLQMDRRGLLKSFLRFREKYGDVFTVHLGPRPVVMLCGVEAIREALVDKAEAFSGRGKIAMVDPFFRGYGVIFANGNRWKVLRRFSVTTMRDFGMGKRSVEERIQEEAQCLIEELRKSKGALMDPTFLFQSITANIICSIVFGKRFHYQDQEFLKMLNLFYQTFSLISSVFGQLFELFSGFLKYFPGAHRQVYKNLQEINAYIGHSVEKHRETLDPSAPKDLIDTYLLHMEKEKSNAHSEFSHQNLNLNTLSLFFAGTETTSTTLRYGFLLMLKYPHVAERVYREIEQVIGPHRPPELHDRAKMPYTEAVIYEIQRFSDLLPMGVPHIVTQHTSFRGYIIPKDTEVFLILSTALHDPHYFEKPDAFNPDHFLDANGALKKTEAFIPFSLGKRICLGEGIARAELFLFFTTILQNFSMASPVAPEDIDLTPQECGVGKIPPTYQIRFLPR
Briefly: CYP inhibition test, liver microsome incubation. The format is in vitro ADME. To be noted: liver microsomes, probe bupropion. The procedure: as §1, §2, §3, §4

Series [5] concerns the target T4, CYP2C8 (Homo sapiens, UniProt P10632).
T4 construct: from tissue; host or cells: liver microsomes
T4 sequence (P10632 1-490): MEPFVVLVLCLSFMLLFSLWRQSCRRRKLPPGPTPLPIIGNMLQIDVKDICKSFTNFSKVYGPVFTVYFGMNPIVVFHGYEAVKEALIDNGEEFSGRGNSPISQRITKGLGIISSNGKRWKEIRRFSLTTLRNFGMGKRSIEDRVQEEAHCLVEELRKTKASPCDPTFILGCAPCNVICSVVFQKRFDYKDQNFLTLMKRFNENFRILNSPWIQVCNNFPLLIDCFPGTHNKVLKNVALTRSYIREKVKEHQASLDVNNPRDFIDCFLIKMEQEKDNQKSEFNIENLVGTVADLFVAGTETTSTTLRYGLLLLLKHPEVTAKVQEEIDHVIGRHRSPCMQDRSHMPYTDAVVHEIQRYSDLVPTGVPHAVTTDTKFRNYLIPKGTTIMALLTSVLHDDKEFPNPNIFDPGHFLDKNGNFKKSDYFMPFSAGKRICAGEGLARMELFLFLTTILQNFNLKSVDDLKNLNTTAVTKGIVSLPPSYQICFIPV
Briefly: CYP inhibition test, liver microsome incubation. To be noted: liver microsomes, probe amodiaquine. The format is in vitro ADME. The protocol: as §1, §2, §3, §4

Series [6] has as its target T5, CYP2C9 (Homo sapiens, UniProt P11712).
T5 construct: The protein concentration of liver microsomes in the reaction system was 0.2 mg/mL; from tissue; host or cells: liver microsomes
Briefly: CYP inhibition test, liver microsome incubation. To be noted: liver microsomes, probe diclofenac. Format: in vitro ADME. The procedure: as §1, §2, §3, §4

For series [7], the target named is T6, CYP2D6 (Homo sapiens, UniProt P10635).
T6 construct: from tissue; host or cells: liver microsomes
T6 sequence (P10635 whole entry): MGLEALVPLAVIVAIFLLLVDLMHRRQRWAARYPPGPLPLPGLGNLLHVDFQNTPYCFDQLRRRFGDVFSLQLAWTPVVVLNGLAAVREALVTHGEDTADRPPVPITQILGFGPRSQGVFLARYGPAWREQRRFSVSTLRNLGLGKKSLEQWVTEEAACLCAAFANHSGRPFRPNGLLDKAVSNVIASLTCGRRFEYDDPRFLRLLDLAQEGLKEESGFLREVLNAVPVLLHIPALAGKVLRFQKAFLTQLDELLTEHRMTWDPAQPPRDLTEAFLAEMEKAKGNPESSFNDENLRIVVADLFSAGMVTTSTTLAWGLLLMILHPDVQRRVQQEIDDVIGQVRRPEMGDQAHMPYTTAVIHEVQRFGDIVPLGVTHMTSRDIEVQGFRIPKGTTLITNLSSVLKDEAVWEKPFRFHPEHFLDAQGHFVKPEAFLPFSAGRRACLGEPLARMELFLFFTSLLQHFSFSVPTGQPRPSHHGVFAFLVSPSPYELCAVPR
Kind of series: CYP inhibition test, liver microsome incubation. The format is in vitro ADME. The note with it: liver microsomes, probe dextromethorphan. The protocol:
as §1, §2, §3, §4

The target in series [8] is T7, CYP3A4 (Homo sapiens, UniProt P08684).
T7 construct: The protein concentration of liver microsomes in the reaction system was 0.2 mg/mL; from tissue; host or cells: liver microsomes
T7 sequence (P08684 whole entry): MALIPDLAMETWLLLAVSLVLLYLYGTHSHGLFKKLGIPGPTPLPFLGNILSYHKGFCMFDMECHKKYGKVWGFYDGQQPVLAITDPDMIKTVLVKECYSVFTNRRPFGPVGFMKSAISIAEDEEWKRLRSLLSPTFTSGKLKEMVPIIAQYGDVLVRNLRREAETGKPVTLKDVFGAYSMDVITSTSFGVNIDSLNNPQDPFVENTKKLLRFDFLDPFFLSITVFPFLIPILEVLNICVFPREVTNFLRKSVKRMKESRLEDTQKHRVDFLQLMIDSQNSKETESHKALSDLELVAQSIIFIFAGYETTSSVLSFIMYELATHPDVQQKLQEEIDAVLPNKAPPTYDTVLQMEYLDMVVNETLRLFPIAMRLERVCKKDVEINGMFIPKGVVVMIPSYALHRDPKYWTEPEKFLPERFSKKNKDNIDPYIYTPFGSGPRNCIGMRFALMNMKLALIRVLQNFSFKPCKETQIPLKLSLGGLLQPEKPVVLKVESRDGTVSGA
Kind of series: CYP inhibition test, liver microsome incubation. Format: in vitro ADME. The note with it: liver microsomes. The procedure:
as §1, §2, §3, §4

Series [9] relates to CYP450 enzymes. Kind of series: CYP inhibition test, overall statement on the eight CYP450 enzymes. The note with it: all the eight CYP450 enzymes. The format is in vitro ADME. The procedure:
as §1, §2, §3, §4
The risk of drug interaction is little, and thus higher safety exists. Other compounds of the invention all have similar safety.

The conditions of series [10]: male, ICR, mouse, in vivo, po, 10 mg/kg.

T1 sequence (P33261 whole entry): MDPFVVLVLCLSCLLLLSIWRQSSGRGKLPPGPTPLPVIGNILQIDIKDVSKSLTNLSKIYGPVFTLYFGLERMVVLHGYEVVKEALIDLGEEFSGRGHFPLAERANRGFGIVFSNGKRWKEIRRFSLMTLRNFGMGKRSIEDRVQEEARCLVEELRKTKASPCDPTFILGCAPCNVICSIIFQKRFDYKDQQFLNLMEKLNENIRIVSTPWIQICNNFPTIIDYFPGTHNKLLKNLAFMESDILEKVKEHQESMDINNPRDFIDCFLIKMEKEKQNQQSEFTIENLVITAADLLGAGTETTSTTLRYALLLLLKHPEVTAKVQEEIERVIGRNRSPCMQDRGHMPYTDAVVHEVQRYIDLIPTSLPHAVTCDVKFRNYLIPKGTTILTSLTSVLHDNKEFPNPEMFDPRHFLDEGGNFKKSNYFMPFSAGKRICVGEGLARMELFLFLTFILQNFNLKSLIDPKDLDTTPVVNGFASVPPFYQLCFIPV
T5 sequence (P11712 whole entry): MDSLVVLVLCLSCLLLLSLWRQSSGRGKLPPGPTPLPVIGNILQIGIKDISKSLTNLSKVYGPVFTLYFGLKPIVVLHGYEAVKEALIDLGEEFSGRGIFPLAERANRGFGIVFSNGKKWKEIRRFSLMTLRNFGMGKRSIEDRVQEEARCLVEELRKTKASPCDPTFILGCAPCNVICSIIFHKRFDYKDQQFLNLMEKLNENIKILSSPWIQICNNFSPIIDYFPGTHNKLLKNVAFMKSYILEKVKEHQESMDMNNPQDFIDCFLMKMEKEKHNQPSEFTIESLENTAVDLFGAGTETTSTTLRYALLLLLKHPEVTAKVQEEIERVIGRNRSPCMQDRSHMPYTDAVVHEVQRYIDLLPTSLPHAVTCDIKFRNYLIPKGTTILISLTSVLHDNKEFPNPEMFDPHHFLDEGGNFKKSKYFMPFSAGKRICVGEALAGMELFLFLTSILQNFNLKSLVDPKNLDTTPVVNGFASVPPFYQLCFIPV

A word on the EC50: it is the concentration that produces a half-maximal response. Low values mean a more potent agent, high ones a less potent agent. What is called IC50 is the concentration at which inhibition is half-maximal. Higher therefore signals lower potency. Take `C[C@H](Cn1cnc2c(N)ncnc21)OCP(=O)(NCCOCc1ccccc1)Oc1ccccc1` (mixture of isomers) [Ex. 15, ((((R)-1-(6-amino-9H-purin-9-yl)propan-2-yl)oxy)methyl)-phenoxy-N-(2-(benzyloxy)ethyl)phosphoramide]: the response in series [1] was half-maximal at 54.7 ± 26.4 nM (EC50). In addition, the IC50 in series [2], in series [3], in series [4], in series [5], in series [6] and in series [7] was over 50 µM each time. Moreover, the values for the IC50 in series [8] (probe midazolam) and in series [8] (probe testosterone) were 11.6 µM and 13.3 µM, respectively. Besides, the “inhibitory effect on the eight CYP450 enzymes (in words)” value in series [9] is on record as “no inhibitory effect”.
With `C[C@H](Cn1cnc2c(N)ncnc21)OCP(=O)(O)O` (single isomer, unassigned) [Metabolite 1 of Compound 22 - Isomer B of Example 16], in series [10], the “concentration of Metabolite 1 in liver relative to the plasma concentration” value is listed as 21 times.
